# Source: patent US9169509B2, “Topoisomerase 2b as a predictor of susceptibility to anthracycline-induced cardiotoxicity” (Board of Regents, The University of Texas System, priority 2013, dated 2015)
# What was measured:
# cardiomyocytes [1] = assay: Microarray gene expression profiling with Ingenuity pathway analysis of cardiomyocytes isolated from doxorubicin-treated mice; type: in vivo, mouse
# Description: Microarray-based Ingenuity pathway analysis was next used to study the effect of doxorubicin treatment in the Top2b^+/+ and Top2b^Δ/Δ heart in an unbiased way. Mice were treated with tamoxifen for 5 consecutive days. […] Cardiomyocytes were prepared from excised heart and mRNAs were extracted for microarray analysis. Ingenuity pathway analysis of microarray data based on expression changes (>1.5 fold) of 59,306 genes upon doxorubicin treatment identified perturbation (mainly activation) in p53 and β-adrenergic signaling pathways in Top2b^+/+ cardiomyocytes (left bars), but not in Top2bΔ/Δ cardiomyocytes (center bars) (FIG. 1a, FIG. 4a, and Table 1). No difference was found between untreated Top2b^+/+ and Top2b^Δ/Δ cardiomyocytes (right bars). Of particular interest is a 200 fold up-regulation of the transcript encoding p53DINP1, a p53-inducible gene that regulates apoptosis (Sohal et al., 2001) (FIG. 4b). There were also increases in the transcript of Apaf1, Bax, and Fas, genes important in the apoptosis pathway (Ogasawara et al., 1983) (FIG. 4c). Both p53DINP1, Apaf1, Bax, Mdm2, and Fas up-regulation were only observed in doxorubicin-treated Top2b^+/+, but not Top2b^Δ/Δ cardiomyocytes. This is consistent with the previous observation that doxorubicin and Top2b formed a DNA ternary cleavage complex to induce DNA double strand breaks (DSBs), leading to cell death (9).
# To gain further insight into the pathogenesis of doxorubicin-induced cardiotoxicity, the transcriptome analysis was repeated 72 h following doxorubicin exposure. The Ingenuity pathway analysis of microarray data based on expression changes (>1.5 fold) of 59,306 genes upon doxorubicin treatment identified perturbation (mainly repression) in the mitochondria dysfunction and oxidative phosphorylation pathways in Top2b^+/+ cardiomyocytes (left bars), but not in Top2b^Δ/Δ cardiomyocytes (middle bars). No difference was found between untreated Top2b^+/+ and Top2b^Δ/Δ cardiomyocytes (right bars). There was a complete change in the ingenuity pathway profiles 72 h following doxorubicin exposure (FIGS. 1a,d). Early activation in the p53 pathway was replaced by mitochondrial dysfunction and oxidative phosphorylation pathways in the Top2b^+/+, but not Top2b^Δ/Δ cardiomyocytes (FIGS. 1a,d and Table 2). […] This was confirmed by qPCR of analysis of PGC-1α and PGC-1β transcripts (FIG. 1e). […] Consistent with the critical role exerted by PGC-1α and PGC-1β in mitochondrial biogenesis (Arany, Z. et al., 2006; Lai, L. et al., 2008), transcripts of key electron transport chains, such as Ndufa3 (NADH dehydrogenase 1 alpha subcomplex, 3, Complex1), Sdha (succinate dehydrogenase complex, subunit A, Complex II), and Atp5a (alpha subunit of Complex V) were decreased in the doxorubicin treated Top2b^+/+, but much less so in Top2b^Δ/Δ cardiomyocytes (FIG. 1e). […] Thus, in the presence of Top2b, doxorubicin caused decreases in transcripts of genes involved in the regulation of mitochondria biogenesis and function.
# Total RNA was extracted from cardiomyocytes isolated from mouse heart 16 or 72 h after treatment with doxorubicin (25 mg/kg) or drug vehicle using TRIZOL reagent (Invitrogen), then purified with RNeasy Mini Kit (Qiagen) according to the manufacturer's instructions. Purified RNA samples were shipped on dry ice to Miltenyi Biotec Inc. for microarray analysis. Quality control of the sample RNA was performed by the company. Before hybridization, 100 ng of each sample RNA was used for T7-based amplification and Cy3 labeling. The hybridization procedure was performed according to the Agilent 60-mer oligo microarray processing protocol using the Agilent Gene Expression Hybridization Kit (Agilent Technologies). After an overnight hybridization (65° C.) the microarrays were washed and scanned using Agilent Microarray Scanner System (Agilent Technologies).
# cardiomyocytes [2] = assay: RT-qPCR of cardiomyocytes isolated from doxorubicin-treated mice; type: in vivo, mouse
# Description: Isolation of cardiomyocytes from mouse heart was carried out with Langendorff perfusion apparatus according to the standard protocol described above. Total RNA extraction was performed with TRIZOL Reagent (Invitrogen) and purification with RNeasy Mini Kit (QIAGEN) according the manufacturer's protocol. The concentration of RNA obtained was measured using a super-sensitive NanoDrop ND1000 spectrophotometer (Thermo Scientific). Reverse transcription reaction was performed by using the High Capacity RNA-to-cDNA Kit (Applied Biosystem). In brief, cDNA was generated from 1 μg of RNA by RT Enzyme Mix according to the manufacturer's instructions on a PCR thermocycler (S1000TM Thermal Cycler, BIO-RAD, USA). The resulting cDNA was diluted to a final concentration of 50 ng/μl for PCR amplification. Real time quantitative PCR was carried out by using a 7900HT Fast Real-Time PCR System (Applied Biosystems). Mouse TaqMan® Gene primers and probes (FAM, Applied Biosystem), were used in PCR amplification. Mouse GAPDH was used as internal control (VIC®/MGB Probe, Primer Limited, Applied Biosystem). The following TaqMan® Gene primers/probes were used Sdha (Mm01352366_m1), ATP5a1: (Mm00431960_m1), Ndufa3 (Mm01329704_g1), Ppargcla (PGC-1α, Mm01208835_m1), Ppargc1b (PGC-1β, Mm00504720_m1), Esrra (EER, Mm00433143_m1), Trp53inp1 (Mm00458141_m1), Fas: (Mm00433237_m1), Apaf1 (Mm01223702_m1), Bax (Mm00432051_m1), Mdm2 (Mm01233136_m1), and GAPDH: Mouse GAPD (GAPDH) Endogenous Control (VIC®/MGB Probe, Primer Limited). Comparative analyses of each gene were performed using company-provided softwares, SDS2.4 and RQ Manager 1.2.1 (Applied Biosystems). All amplifications were carried out at least in duplicates. The mRNA expression levels of each gene were calculated by using the 2-ΔΔCt (comparative threshold cycle) method, as detailed by the manufacturer (Applied Biosystems).
# [3] = Top2b+/+ cardiomyocytes, 16 hrs after doxorubicin 25 mg/kg i.p.
# [4] = Top2b+/+ cardiomyocytes, 72 hrs after doxorubicin 25 mg/kg
# [5] = wild type hearts, 72 h after doxorubicin, not in Top2b deleted
smiles,measurement,setting,value
COc1cccc2c1C(=O)c1c(O)c3c(c(O)c1C2=O)C[C@@](O)(C(=O)CO)C[C@@H]3O[C@H]1C[C@H](N)[C@H](O)[C@H](C)O1 [doxorubicin],"Up-regulated genes associated with p53 signaling pathway (expression change, genes listed in Table 1)",cardiomyocytes [1]; [3],Up-regulated genes (>1.5 fold) associated with p53 signaling pathway
same,Down-regulated genes associated with mitochondrial dysfunction and oxidative phosphorylation pathways (genes listed in Table 2),cardiomyocytes [1]; [4],Down-regulated Genes (>1.5 fold)
same,Up-regulated genes associated with mitochondrial dysfunction and oxidative phosphorylation pathways (genes listed in Table 2),cardiomyocytes [1]; [4],Up-regulatedGenes (>1.5 fold)
same,Expression change of the genes identified in the p53 pathway,"cardiomyocytes [1]; Top2bΔ/Δ cardiomyocytes, 16 hrs after doxorubicin 25 mg/kg i.p.","TP53INP1 is also called p53DINP1. The list was generated by Ingenuity software, and none of the genes identified in the p53 pathway had an expression change that reached 1.5 fold in Top2b^Δ/Δ cardiomyocytes."
same,Expression change of the genes identified in the mitochondrial dysfunction and oxidative phosphorylation pathways,"cardiomyocytes [1]; Top2bΔ/Δ cardiomyocytes, 72 hrs after doxorubicin 25 mg/kg","The list was generated by Ingenuity software, and none of the genes identified in the 2 pathways had an expression change that reached 1.5 fold in Top2b^Δ/Δ cardiomyocytes."
same,PGC-1α downregulation,cardiomyocytes [1]; [5],1.5 fold
same,PGC-1β downregulation,cardiomyocytes [1]; [5],1.5 fold
same,"Transcript of Apaf1, Bax, and Fas (apoptosis pathway genes)",cardiomyocytes [2]; [3],increases
same,Up-regulation of the transcript encoding p53DINP1 (TP53INP1),cardiomyocytes [2]; [3],200 fold
same,Genes involved in mitochondrial biogenesis (RT-qPCR),"cardiomyocytes [2]; Top2b+/+ hearts, chronic doxorubicin 5 mg/kg once a week for 5 weeks",Reduction of genes involved in mitochondrial biogenesis
same,"Transcripts of Ndufa3, Sdha and Atp5a (electron transport chain)","cardiomyocytes [2]; doxorubicin treated Top2b+/+ cardiomyocytes, 72 h, much less so in Top2bΔ/Δ",decreased
same,Erra transcript,"cardiomyocytes [2]; doxorubicin-treated wild type cardiomyocytes, 72 h, not in Top2b-deleted",down-regulated
